The text below walks through data of patent publication US6369069B1 (Aventis Pharma Deutschland GmbH, priority 1998, dated 2002).

This assay relates to Na^+-dependent Cl^−/HCO3^− exchanger (NCBE). The assay can be described thus: Inhibition of the Na+-dependent Cl−/HCO3− exchanger (NCBE) in human endothelial cells (pHi recovery, BCECF fluorescence, FLIPR). Format: cell-based. The method, boiled down: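 ECV-304 cells loaded with 5 μM BCECF-AM in NH4Cl-containing saline, then placed in Na+/HCO3−-free buffer to acidify. pHi recovery started with Na+/HCO3− buffer (50 μM HOE 642) plus compound at various concentrations. Fluorescence kinetics over 2 min at 35 °C, normalised to 100% and 0% (HCO3−-free) controls.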

Setting [1] is: compound at 10 μM, R(3) to R(7) hydrogen series.

As to `N#CNS(=O)(=O)c1ccccc1-c1ccc(CN(C(=O)CCOc2ccccc2)C2CCc3ccccc32)cc1` (centres unmarked) [Example 344], where the note is “10 μM”, the “Residual activity % of the NCBE at 10 μM” value is given as 52.2%. On the same count and under the same terms, with `N#CNS(=O)(=O)c1ccccc1-c1ccc(CN(C(=O)CCOc2ccccc2)C2CCCc3ccccc32)cc1` (centres unmarked) [Example 345] the figure was 39.8%; with `N#CNS(=O)(=O)c1ccccc1-c1ccc(CN(Cc2ccccc2F)C(=O)CCOc2ccccc2)cc1` [Example 346], 36.0%; with `N#CNS(=O)(=O)c1ccccc1-c1ccc(CN(Cc2cccc(-c3ccccc3)c2)C(=O)CCOc2ccccc2)cc1` [Example 347], 19.3%. Take `N#CNS(=O)(=O)c1ccccc1-c1ccc(CN(CC2CCCO2)C(=O)CCOc2ccccc2)cc1` (centres unmarked) [Example 348]: the “Residual activity % of the NCBE at 10 μM” value (10 μM) came out at 46.3%. Take `N#CNS(=O)(=O)c1ccccc1-c1ccc(CN(Cc2cccc(Cl)c2Cl)C(=O)CC2CCCCC2)cc1` [Example 349]: where the note is “10 μM”, the “Residual activity % of the NCBE at 10 μM” value is recorded as 50.4%. Turning to `Cc1cccc(CN(Cc2ccc(-c3ccccc3S(=O)(=O)NC#N)cc2)C(=O)CC2CCCCC2)c1` [Example 351], the “Residual activity % of the NCBE at 10 μM” value (10 μM) amounted to 27.2%. On to `Cc1ccccc1CN(Cc1ccc(-c2ccccc2S(=O)(=O)NC#N)cc1)C(=O)CC1CCCCC1` [Example 352], for which the “Residual activity % of the NCBE at 10 μM” value (10 μM) is 35.2%. Consider `CC(C)=CCCC(C)=CCN(Cc1ccc(-c2ccccc2S(=O)(=O)NC#N)cc1)C(=O)CC1CCCCC1` [Example 353], for which the “Residual activity % of the NCBE at 10 μM” value (10 μM) worked out at 47.9%. Still for that read-out and setting: the figure for `N#CNS(=O)(=O)c1ccccc1-c1ccc(CN(C(=O)CC2CCCCC2)C2CCc3ccccc32)cc1` (centres unmarked) [Example 354] is 37.2%.

Regarding `N#CNS(=O)(=O)c1ccccc1-c1ccc(CN(C(=O)CC2CCCCC2)C2CCCc3ccccc32)cc1` (centres unmarked) [Example 355], the “Residual activity % of the NCBE at 10 μM” value (10 μM) is on record as 46.8%. As for `N#CNS(=O)(=O)c1ccccc1-c1ccc(CN(Cc2ccccc2F)C(=O)CC2CCCCC2)cc1` [Example 356], the “Residual activity % of the NCBE at 10 μM” value (10 μM) turned out to be 47.4%. For the molecule `N#CNS(=O)(=O)c1ccccc1-c1ccc(CN(Cc2cccc(-c3ccccc3)c2)C(=O)CC2CCCCC2)cc1` [Example 357], the “Residual activity % of the NCBE at 10 μM” value (10 μM) is 61.9%. Same read-out and setting: with `N#CNS(=O)(=O)c1ccccc1-c1ccc(CN(CC2CCCO2)C(=O)CC2CCCCC2)cc1` (centres unmarked) [Example 358] the figure was 55.5%; with `N#CNS(=O)(=O)c1ccccc1-c1ccc(CN(Cc2cccc(Cl)c2Cl)C(=O)CC2CCCC2)cc1` [Example 359], 37.9%. With `N#CNS(=O)(=O)c1ccccc1-c1ccc(CN(Cc2ccc3ccccc3c2)C(=O)CC2CCCC2)cc1` [Example 360], the “Residual activity % of the NCBE at 10 μM” value (10 μM) worked out at 36.9%.

Turning to `Cc1cccc(CN(Cc2ccc(-c3ccccc3S(=O)(=O)NC#N)cc2)C(=O)CC2CCCC2)c1` [Example 361], the “Residual activity % of the NCBE at 10 μM” value (10 μM) is given as 29.4%.

As to `Cc1ccccc1CN(Cc1ccc(-c2ccccc2S(=O)(=O)NC#N)cc1)C(=O)CC1CCCC1` [Example 362], the “Residual activity % of the NCBE at 10 μM” value (10 μM) turned out to be 44.1%.

`CC(C)=CCCC(C)=CCN(Cc1ccc(-c2ccccc2S(=O)(=O)NC#N)cc1)C(=O)CC1CCCC1` [Example 363]: the “Residual activity % of the NCBE at 10 μM” value (10 μM) turned out to be 48.3%. On the same count and under the same terms, with `N#CNS(=O)(=O)c1ccccc1-c1ccc(CN(C(=O)CC2CCCC2)C2CCc3ccccc32)cc1` (centres unmarked) [Example 364] the figure was 52.6%; with `N#CNS(=O)(=O)c1ccccc1-c1ccc(CN(C(=O)CC2CCCC2)C2CCCc3ccccc32)cc1` (centres unmarked) [Example 365], 45.1%. As to `N#CNS(=O)(=O)c1ccccc1-c1ccc(CN(Cc2ccccc2F)C(=O)CC2CCCC2)cc1` [Example 366], under setting [1], the “Residual activity % of the NCBE at 10 μM” value was found to be 38.4%. On the same count and under the same terms, with `N#CNS(=O)(=O)c1ccccc1-c1ccc(CN(Cc2cccc(-c3ccccc3)c2)C(=O)CC2CCCC2)cc1` [Example 367] the figure was 25.5%.
